Experimental data reported in US20210338782A1, “STORAGE STABLE SOMATOSTATIN-DOPAMINE CHIMERIC COMPOUNDS AND SALT FORMS THEREOF” (Cydan II, Inc., priority 2019, published 2021).
Entries after “also recorded” stand apart in the source; their conditions may differ. Counter-ions that a name gives are not always drawn.

How the values were obtained:
Assay type in all cases: physicochemical
[1] = Solid state (thermolytic) stability of TBR-760 salt forms, open container, UPLC peak purity and appearance
Procedure: (§1) Each TBR-760 salt was further evaluated for thermolytic stability over time by setting up three different exposure conditions (25° C. at 60% relative humidity (RH); 40° C. at 75% RH; or 60° C. with open and closed container systems (open dish/closed dish). Approximately 50 mg of each salt form was weighed in a nitrogen-flushed glove box for use in the studies. All samples were stored at −20° C. in a good laboratory practice (GLP) freezer both before and after exposure to the indicated conditions.
(§2) The stability of each salt form was assessed by monitoring the post-exposure drug peak purity and by evaluating the post-exposure visual appearance of the salt. The samples were removed from the exposure conditions and allowed to equilibrate to ambient conditions for 15-20 mins. An appropriate amount of each sample was weighed for analysis and dissolved in diluent (deionized water containing 0.1% TFA) to obtain a stock concentration of 1 mg/mL. The stock solution was then diluted to 0.125 mg/mL in an HPLC vial using diluent and the samples were run on a Waters Acquity UPLC system using the parameters shown in Table 4.

[2] = Thermogravimetric analysis (TGA) of TBR-760 salt forms; conditions: ramp 5.0° C. per minute from 25 to 400° C.; listed as tosylate salt
Procedure: Thermogravimetric analyses (TGA) were performed on all TBR-760 salt forms to evaluate thermal stability of each salt form. Studies were performed using a TGA-Q500 thermogravimetric analyzer (TA Instruments). The weight of each compound was measured while the temperature was increased at a ramp rate of 5.0° C. per minute from 25 to 400° C. […] The weight loss may be indicative of loss of adsorbed moisture, entrained solvent or volatile impurities. Decomposition of the compound appears to start at about 234° C. (sulfate salt), 245° C. (chloride salt), 252° C. (tosylate salt), and 255° C. (mesylate salt). For the acetate salt, a further ˜5% loss of weight between 110° C. and 200° C. was observed, indicating loss of volatile acetate ions over that temperature range (FIG. 8).

[3] = Photostability of TBR-760 salt forms (ICH Q1B, visible and UV light), appearance and UPLC purity
From the text: (§3) In order to evaluate the light sensitivity and stability of TBR-760 chimeric peptide salts, all five salt forms were exposed to ultraviolet (UV) and visible light according to International Council for Harmonisation of Technical Requirements for Pharmaceuticals for Human Use (ICH) guideline Q1B for photostability testing. In brief, a Caron 6540-1 photostability chamber unit with separate UV and light chambers was used for the studies. Visible light exposure was 1.2 million lux hours and UV exposure was 200 watt hours/square meter.
Samples were placed in clear, sealed vials and stored in the appropriate chamber alongside dark controls in amber colored vials wrapped in aluminum foil. Control samples were stored in sealed amber vials at −20° C. The appearance of exposed samples was examined visually before being analyzed via UPLC.

[4] = Photostability of alternative salt forms of lanreotide and TBR-760; conditions: 1.2 million lux hours visible light or 200 watt hours/square meter UV light
From the text: as §3
Photostability of lanreotide acetate, lanreotide bromide, lanreotide chloride, TBR-760 acetate, TBR-760 bromide and TBR760 chloride was tested according to the methods of Example 7. Four samples were prepared for each salt form: one control for each of the UV and visible light exposure conditions (controls isolated from light) and one sample for exposure to each of the UV and visible light conditions. For each sample, 2-5 mg of the salt was weighed into 3 mL clear serum vials and stoppered. Vials containing control samples were wrapped in aluminum foil.
Following exposure to visible and UV light, all lanreotide and TBR-760 salts were analyzed by UPLC as described in Example 7.

[5] = Thermostability of alternative salt forms of lanreotide and TBR-760 (UPLC); conditions: for compound degraded: 4 weeks at 60° C. and ambient humidity; for thermostability in words: increasing temperature and humidity (25° C./60% RH, 40° C./75% RH, 60° C.) up to 4 weeks
Procedure: as §1, §2
We conducted thermostability studies of lanreotide acetate substantially as described in Example 6. These experiments confirmed that lanreotide acetate is […] when exposed to increasing temperature and humidity conditions over time (FIG. 45). […] (FIG. 45). This degree of thermal and humidity instability is disfavored for a pharmaceutical agent, particularly one intended for patient self-administration at home.
To determine whether a thermostable salt form of TBR-760 could be manufactured, a salt exchange was performed as described in Example 1 to generate bromide and chloride salts of TBR-760. Lanreotide bromide and lanreotide chloride salts were also generated and assessed for thermostability to evaluate the effect of the salt form on compound stability and to compare stability of lanreotide and TBR-760 of each salt.
UPLC assays performed as described in Example 6 were further used to determine the number of degradants—and thus the number of impurities—in each sample. Results showing the purity assessment of each sample following thermostability studies are shown in FIGS. 48A-48B (lanreotide and TBR-760 acetate salts), 49A-49B (lanreotide and TBR-760 bromide salts), and 50A-50B (lanreotide and TBR-760 chloride salts).

[6] = 25° C. at 60% RH, open container
[7] = 40° C. at 75% RH, open container
[8] = UPLC peak purity, 25° C. at 60% RH, open container
[9] = UPLC peak purity, 40° C. at 75% RH, open container
[10] = UPLC peak purity, 60° C., open dish
[11] = listed as hydrobromide salt of TBR-760
[12] = listed as lanreotide hydrobromide

CCCN1C[C@H](CSCC(=O)NCCCC[C@@H](NC(=O)CSC[C@@H]2C[C@@H]3c4cccc5[nH]cc(c45)C[C@H]3N(CCC)C2)C(=O)N[C@H]2CSSC[C@@H](C(=O)N[C@H](C(N)=O)[C@@H](C)O)NC(=O)[C@H](CC)NC(=O)[C@H](CCCCN)NC(=O)[C@@H](Cc3c[nH]c4ccccc34)NC(=O)[C@H](Cc3ccc(O)cc3)NC2=O)C[C@@H]2c3cccc4[nH]cc(c34)C[C@H]21 [TBR-760 tosylate, Dop2-D-Lys(Dop2)-cyclo[Cys-Tyr-D-Trp-Lys-Abu-Cys]-Thr-NH2]
Appearance, T = 2 wk [1, 6]: White
Appearance, T = 4 wk [1, 6]: White
Appearance, T = 3 d [1, 6]: White
Appearance, T = 2 wk [1, 7]: White
Appearance, T = 4 wk [1, 7]: White
Appearance, T = 3 d [1, 7]: White
Appearance, T = 2 wk ([1]; 60° C., open dish): White
Appearance, T = 4 wk ([1]; 60° C., open dish): White
Appearance, T = 3 d ([1]; 60° C., open dish): White
Purity, T = 2 wk [1, 8]: 98.01
Purity, T = 4 wk [1, 8]: 97.39
Purity, T = 2 wk [1, 9]: 97.57
Purity, T = 4 wk [1, 9]: 96.93
Purity, T = 2 wk [1, 10]: 96.86
Purity, T = 4 wk [1, 10]: 96.52
Purity, Control ([1]; UPLC peak purity, control, stored at -20° C.): 98.39
Appearance, Control ([1]; control, stored at -20° C.): White
TGA start of decomposition [2]: ~252 °C
Purity, UV-exposed ([3]; UPLC, UV 200 watt hours/square meter, clear sealed vial): 95.67
Purity, Control ([3]; UPLC, control in sealed amber vial at -20° C.): 98.39
Purity, Dark Ctrl-UV ([3]; UPLC, dark control in UV chamber): 98.27
Purity, Dark Crtl-Light ([3]; UPLC, dark control in visible light chamber): 98.27
Purity, Light-exposed ([3]; UPLC, visible light 1.2 million lux hours, clear sealed vial): 96.3
Appearance, UV-exposed ([3]; UV 200 watt hours/square meter, clear sealed vial, listed as Tosylate): off-white
Appearance, UV-exposed ([3]; UV 200 watt hours/square meter, clear sealed vial, listed as tosylate): white to off-white
Appearance, Control ([3]; control in sealed amber vial at -20° C.): white
Appearance, Dark Ctrl-UV ([3]; dark control in UV chamber, amber vial wrapped in aluminum foil): white
Appearance, Dark Crtl-Light ([3]; dark control in visible light chamber, amber vial wrapped in aluminum foil): white
degradation upon exposure to visible or UV light, in words ([3]; visible and UV light, UPLC): more resistant to degradation than TBR-760 acetate
stability following light exposure, in words ([3]; visible light 1.2 million lux hours): significantly more stable than the TBR-760 acetate salt
Appearance, Light-exposed ([3]; visible light 1.2 million lux hours, clear sealed vial, listed as Tosylate): off-white
Appearance, Light-exposed ([3]; visible light 1.2 million lux hours, clear sealed vial, listed as tosylate): white to off-white

CCCN1C[C@H](CSCC(=O)NCCCC[C@@H](NC(=O)CSC[C@@H]2C[C@@H]3c4cccc5[nH]cc(c45)C[C@H]3N(CCC)C2)C(=O)N[C@H]2CSSC[C@@H](C(=O)N[C@H](C(N)=O)[C@@H](C)O)NC(=O)[C@H](CC)NC(=O)[C@H](CCCCN)NC(=O)[C@@H](Cc3c[nH]c4ccccc34)NC(=O)[C@H](Cc3ccc(O)cc3)NC2=O)C[C@@H]2c3cccc4[nH]cc(c34)C[C@H]21 [TBR-760 bromide, Dop2-D-Lys(Dop2)-cyclo[Cys-Tyr-D-Trp-Lys-Abu-Cys]-Thr-NH2]
photostability in words (UPLC purity) [4]: greater loss of purity than TBR-760 acetate or TBR-760 chloride
visible appearance after exposure to visible and UV light ([4]; versus control): did not visibly change
photostability in words (UPLC purity) [4, 11]: significantly degraded
compound degraded [5]: more than 23%
thermostability in words [5, 11]: significantly degraded

CC(C)[C@@H]1NC(=O)[C@H](CCCCN)NC(=O)[C@@H](Cc2c[nH]c3ccccc23)NC(=O)[C@H](Cc2ccc(O)cc2)NC(=O)[C@@H](NC(=O)[C@H](N)Cc2ccc3ccccc3c2)CSSC[C@@H](C(=O)N[C@H](C(N)=O)[C@@H](C)O)NC1=O [lanreotide acetate, lanreotide, reference compound]
photostability in words (UPLC purity) [4]: stable to both visible and UV light
thermostability in words [5]: thermostable; also recorded: stable

CC(C)[C@@H]1NC(=O)[C@H](CCCCN)NC(=O)[C@@H](Cc2c[nH]c3ccccc23)NC(=O)[C@H](Cc2ccc(O)cc2)NC(=O)[C@@H](NC(=O)[C@H](N)Cc2ccc3ccccc3c2)CSSC[C@@H](C(=O)N[C@H](C(N)=O)[C@@H](C)O)NC1=O [lanreotide bromide, lanreotide, reference compound]
photostability in words (UPLC purity) [4, 12]: moderately stable
compound degraded [5]: more than 7%
thermostability in words [5, 12]: moderately stable; also recorded: less stable than lanreotide acetate
